How the values were obtained:
[1] = target: DncV (Vibrio cholerae serotype O1, UniProt Q9KVG7); test: DncV-mediated CDN synthesis, kinetics by HPLC; format: biochemical
[2] = target: rocR (Pseudomonas aeruginosa, UniProt Q9HX69); test: rocR-mediated CDN hydrolysis monitored by HPLC; format: biochemical, P. aeruginosa; settings: 100 nM rocR, 10 μM CDN
[3] = parent nucleosides, from previous publications; cited from earlier work
[4] = 500 μM NTP, 37 °C, HPLC, CIAP-quenched, mean ± SD

Sequence of DncV (Q9KVG7 whole entry): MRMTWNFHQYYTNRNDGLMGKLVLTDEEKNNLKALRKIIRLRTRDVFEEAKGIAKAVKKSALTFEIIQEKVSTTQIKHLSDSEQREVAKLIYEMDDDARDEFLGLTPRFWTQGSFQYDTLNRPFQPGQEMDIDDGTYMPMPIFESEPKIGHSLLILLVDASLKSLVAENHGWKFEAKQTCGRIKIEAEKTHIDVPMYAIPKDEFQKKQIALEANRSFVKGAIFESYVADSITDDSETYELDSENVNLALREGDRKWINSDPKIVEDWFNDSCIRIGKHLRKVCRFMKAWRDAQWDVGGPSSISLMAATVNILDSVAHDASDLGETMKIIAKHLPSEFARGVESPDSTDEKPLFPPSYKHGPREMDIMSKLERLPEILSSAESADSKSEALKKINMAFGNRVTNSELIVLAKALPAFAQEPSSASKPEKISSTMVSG
Sequence of rocR (Q9HX69 whole entry): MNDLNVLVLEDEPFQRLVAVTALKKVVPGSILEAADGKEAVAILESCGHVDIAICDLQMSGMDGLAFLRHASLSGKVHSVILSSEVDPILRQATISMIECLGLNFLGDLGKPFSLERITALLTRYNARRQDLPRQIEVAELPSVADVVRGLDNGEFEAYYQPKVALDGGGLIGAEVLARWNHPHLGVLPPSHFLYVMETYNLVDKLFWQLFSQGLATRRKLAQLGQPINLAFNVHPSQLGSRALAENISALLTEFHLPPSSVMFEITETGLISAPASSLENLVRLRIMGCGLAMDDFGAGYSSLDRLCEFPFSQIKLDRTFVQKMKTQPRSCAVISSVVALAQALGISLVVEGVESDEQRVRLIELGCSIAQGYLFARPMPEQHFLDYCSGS

Nc1nc2c(ncn2[C@@H]2O[C@@H]3COP(=O)(O)O[C@H]4[C@@H](O)[C@H](n5cnc6c(=O)[nH]c(N)nc65)O[C@@H]4COP(=O)(O)O[C@H]3[C@H]2O)c(=O)[nH]1 [c-di-GMP]
k1 (formation of first phosphodiester linkage, S to I1) [1, 4]: (7.1 ±2.3) ×10^−6 μM^−1s^−1 | k2 (cyclization of intermediate I1 to product CDN) [1, 4]: (7.4±2.1) ×10^−2 s^−1 | k3 (degradation of intermediate pppNpN to pNpN) [1, 4]: (6.4±0.3) ×10^−4 s^−1 | k2/k3 ([1]; product formation versus degradation of the intermediate): 116 | time to complete cleavage by rocR [2]: ~3 min | k1 (enzyme/substrate association) ([2]; mean ± SD): 3.96e+06 ± 70000 M⁻¹ s⁻¹ | k2 (cleavage reaction) ([2]; mean ± SD): 0.76 ± 0.03 s⁻¹ | k−1 (enzyme/substrate dissociation) ([2]; mean ± SD): 1.15 ± 0.21 s⁻¹

Nc1nc2c([C@@H]3O[C@H](CO)[C@@H](O)[C@H]3O)snc2c(=O)[nH]1 [^tzG]
ε [3]: 4870 M⁻¹ cm⁻¹ | λabs^max [3]: 333 nm | λem^max [3]: 459 nm | ϕ (emission quantum yield) [3]: 2.5×10^−1 | ϕε [3]: 1203

Reference: article PMC7220823 (Chemistry (Weinheim an der Bergstrasse, Germany), 2020)
